Test results taken from ChEMBL document CHEMBL5352436, “Triterpenoid pyrazines and pyridines - Synthesis, cytotoxicity, mechanism of action, preparation of prodrugs” (Eur J Med Chem, 2022).

Legend:
[1] = Cytotoxicity against human MRC5 cells assessed as reduction in cell viability incubated for 72 hrs by MTS assay; type: toxicity, cell-based
K562 = test: Cytotoxicity against human K562 cells assessed as reduction in cell viability incubated for 72 hrs by MTS assay; type: functional, cell-based; conditions: K562, 72 h
[2] = Cytotoxicity against human BJ cells assessed as reduction in cell viability incubated for 72 hrs by MTS assay; type: toxicity, cell-based
[3] = Cytotoxicity against human HCT116-p53-null cells assessed as reduction in cell viability incubated for 72 hrs by MTS assay; type: functional, cell-based
A549 = test: Cytotoxicity against human A549 cells assessed as reduction in cell viability incubated for 72 hrs by MTS assay; type: functional, cell-based; conditions: A549, 72 h
HCT-116 = test: Cytotoxicity against human HCT-116 cells assessed as reduction in cell viability incubated for 72 hrs by MTS assay; type: functional, cell-based; conditions: HCT-116, 72 h
[4] = Cytotoxicity against human K562-Tax cells assessed as reduction in cell viability incubated for 72 hrs by MTS assay; type: functional, cell-based
U2OS = test: Cytotoxicity against human U2OS cells assessed as reduction in cell viability incubated for 72 hrs by MTS assay; type: functional, cell-based
CCRF-CEM = test: Cytotoxicity against human CCRF-CEM cells assessed as reduction in cell viability incubated for 72 hrs by MTS assay; type: functional, cell-based
CEM-DNR = test: Cytotoxicity against human CEM-DNR cells assessed as reduction in cell viability incubated for 72 hrs by MTS assay; type: functional, cell-based

SMILES | IC50 at 72 h [1] [µM] | IC50 (K562) [µM] | IC50 at 72 h [2] [µM] | IC50 [3] [µM] | IC50 (A549) [µM] | IC50 (HCT-116) [µM] | IC50 [4] [µM] | IC50 (U2OS) [µM] | IC50 (CCRF-CEM) [µM] | IC50 (CEM-DNR) [µM]
CC1(C)C=C2[C@H]3CC[C@@H]4[C@@]5(C)Cc6cccnc6C(C)(C)[C@@H]5CC[C@@]4(C)[C@]3(C)CC[C@@]2(C(=O)O)CC1 | > 50 | > 50 | > 50 | > 50 | > 50 | 47 | 15 | > 50 | 8 | 14
CC1=CC[C@]2(C(=O)O)CC[C@]3(C)[C@H](CC[C@@H]4[C@@]5(C)CCC(=O)C(C)(C)[C@@H]5CC[C@]43C)[C@H]2[C@@H]1C | 33 | 8.5 | 35 | 35 | 24 | 32 | 28 | 24 | 6.5 | 11
CC1=CC[C@]2(C(=O)O)CC[C@]3(C)C(=CC[C@@H]4[C@@]5(C)Cc6cccnc6C(C)(C)[C@@H]5CC[C@]43C)[C@H]2[C@@H]1C | > 50 | 12 | > 50 | 34 | 20 | 34 | 13 | 35 | 6.3 | 11
CC(C)[C@@H]1CC[C@]2(C(=O)O)CC[C@]3(C)[C@H](CC[C@@H]4[C@@]5(C)CCC(=O)C(C)(C)[C@@H]5CC[C@]43C)[C@@H]12 [DIHYDROBETULONIC ACID] | > 50 | – | > 50 | 36 | – | – | 11 | 27 | 6.3 | 48
C#CCOC(=O)[C@]12CC[C@@H](C(=C)C)[C@@H]1[C@H]1CC[C@@H]3[C@@]4(C)CC[C@H](O)C(C)(C)[C@@H]4CC[C@@]3(C)[C@]1(C)CC2 | 26 | 43 | 32 | 31 | 43 | 33 | 36 | 31 | 24 | 40
CC1(C)CC[C@]23CC[C@]4(C)[C@H](CC[C@@H]5[C@@]6(C)CCC(=O)C(C)(C)[C@@H]6CC[C@]54C)[C@H]2[C@H]1OC3 | > 50 | > 50 | > 50 | > 50 | > 50 | > 50 | > 50 | > 50 | > 50 | > 50
Cc1oc(=O)oc1COC(=O)[C@]12CC[C@@H](C(C)C)[C@@H]1[C@H]1CC[C@@H]3[C@@]4(C)Cc5cccnc5C(C)(C)[C@@H]4CC[C@@]3(C)[C@]1(C)CC2 | > 50 | 0.043 | > 50 | > 50 | > 50 | > 50 | > 50 | > 50 | 46 | 50
CC1(C)C=C2[C@H]3CC[C@@H]4[C@@]5(C)Cc6nccnc6C(C)(C)[C@@H]5CC[C@@]4(C)[C@]3(C)CC[C@@]2(C(=O)O)CC1 | > 50 | > 50 | > 50 | > 50 | > 50 | 40 | 25 | > 50 | 15 | 29
Cc1oc(=O)oc1COC(=O)[C@]12CC[C@@H](C(C)C)[C@@H]1[C@H]1CC[C@@H]3[C@@]4(C)Cc5nccnc5C(C)(C)[C@@H]4CC[C@@]3(C)[C@]1(C)CC2 | > 50 | 0.026 | > 50 | 44 | 41 | > 50 | 12 | 40 | 17 | 50
C=C(C)[C@@H]1CC[C@]2(C(=O)O)CC[C@]3(C)[C@H](CC[C@@H]4[C@@]5(C)CCC(=O)C(C)(C)[C@@H]5CC[C@]43C)[C@@H]12 [BETUNOLIC ACID] | – | – | 39 | 49 | – | – | 15 | – | – | 11
C[C@H]1[C@H](C)CC[C@]2(C(=O)O)CC[C@]3(C)C(=CC[C@@H]4[C@@]5(C)CCC(=O)C(C)(C)[C@@H]5CC[C@]43C)[C@H]12 [URSONIC ACID] | > 50 | > 50 | > 50 | > 50 | 50 | 47 | 27 | > 50 | 16 | 19
CC1(C)CC[C@]2(C(=O)O)CC[C@]3(C)C(=CC[C@@H]4[C@@]5(C)CCC(=O)C(C)(C)[C@@H]5CC[C@]43C)[C@@H]2C1 [OLEANONIC ACID] | > 50 | > 50 | > 50 | > 50 | – | – | 21 | – | 9.5 | 17
CC1(C)C=C2[C@H]3CC[C@@H]4[C@@]5(C)CCC(=O)C(C)(C)[C@@H]5CC[C@@]4(C)[C@]3(C)CC[C@@]2(C(=O)O)CC1 [MORONIC ACID] | > 50 | > 50 | > 50 | > 50 | 47 | 45 | 21 | > 50 | 17 | 17
CC1=CC[C@]2(C(=O)O)CC[C@]3(C)[C@H](CC[C@@H]4[C@@]5(C)Cc6nccnc6C(C)(C)[C@@H]5CC[C@]43C)[C@H]2[C@@H]1C | > 50 | 18 | > 50 | 50 | 44 | 48 | 10 | 46 | 7.2 | 10
C[C@H]1[C@H](C)CC[C@]2(C(=O)O)CC[C@]3(C)C(=CC[C@@H]4[C@@]5(C)Cc6nccnc6C(C)(C)[C@]5(C)CC[C@]43C)[C@H]12 | > 50 | > 50 | > 50 | > 50 | > 50 | 50 | 44 | > 50 | 19 | 17
CC1(C)CC[C@]2(C(=O)O)CC[C@]3(C)C(=CC[C@@H]4[C@@]5(C)Cc6cccnc6C(C)(C)[C@@H]5CC[C@]43C)[C@@H]2C1 | > 50 | 13 | > 50 | > 50 | > 50 | > 50 | > 50 | > 50 | 39 | > 50
C#CCOC(=O)[C@]12CC[C@@H](C(=C)C=O)[C@@H]1[C@H]1CC[C@@H]3[C@@]4(C)CC[C@H](O)C(C)(C)[C@@H]4CC[C@@]3(C)[C@]1(C)CC2 | 1.7 | 1.8 | 7.1 | 1.5 | 1.3 | 1.7 | 1.3 | 1.6 | 0.88 | 1.4
CC1(C)CC[C@]2(C(=O)O)CC[C@]3(C)C(=CC[C@@H]4[C@@]5(C)Cc6nccnc6C(C)(C)[C@@H]5CC[C@]43C)[C@@H]2C1 | > 50 | > 50 | > 50 | > 50 | 50 | 50 | 34 | > 50 | 18 | 14
C=C(C)[C@@H]1CC[C@]2(C(=O)OCc3oc(=O)oc3C)CC[C@]3(C)[C@H](CC[C@@H]4[C@@]5(C)Cc6nccnc6C(C)(C)[C@@H]5CC[C@]43C)[C@@H]12 | > 50 | > 50 | > 50 | 49 | 10 | 40 | 13 | 45 | 3.6 | 0.49
CC1(C)CC[C@]23CC[C@]4(C)[C@H](CC[C@@H]5[C@@]6(C)Cc7nccnc7C(C)(C)[C@@H]6CC[C@]54C)[C@H]2[C@H]1OC3 | > 50 | > 50 | > 50 | > 50 | > 50 | > 50 | > 50 | > 50 | > 50 | > 50
C[C@H]1[C@H](C)CC[C@]2(C(=O)O)CC[C@]3(C)C(=CC[C@@H]4[C@@]5(C)Cc6cccnc6C(C)(C)[C@@H]5CC[C@]43C)[C@H]12 | > 50 | 32 | > 50 | > 50 | > 50 | > 50 | 47 | > 50 | 38 | 40
CC1(C)CC[C@]23CC[C@]4(C)[C@H](CC[C@@H]5[C@@]6(C)Cc7cccnc7C(C)(C)[C@@H]6CC[C@]54C)[C@H]2[C@H]1OC3 | > 50 | > 50 | > 50 | > 50 | > 50 | > 50 | > 50 | > 50 | > 50 | > 50
